Source: patent publication US20140357512A1, “HISTONE DEACETYLASE (HDAC) BIOMARKERS IN MULTIPLE MYELOMA” (priority 2013, published 2014)

Tested on: human myeloma cell line MM.1S
Assay: SILAC acetylated-lysine peptide profiling, HDAC inhibitor vs DMSO (light/heavy ratio)
Format: cell-based
Text: An embodiment of the invention comprises utilizing the SILAC method in order to quantitate changes in protein expression between two or more populations of cells. The SILAC method is a technique based on mass spectrometry that detects differences in protein abundance among samples using non-radioactive isotopic labeling. The SILAC method is known in the art, and described in detail in Ong et al., “Stable Isotope Labeling by Amino Acids in Cell Culture, SILAC, as a Simple and Accurate Approach to Expression Proteomics”, Molecular & Cellular Proteomics, vol. 1, pp. 376-386 (2002), which is incorporated herein by reference in its entirety.
Briefly, the SILAC method involves growing two populations of cells in cell culture. The first population of cells is grown in growth media containing normal amino acids (“normal media”). The second population of cells is grown in media lacking a standard essential amino acid (such as lysine), but is then supplemented with a non-radioactive, isotopically labeled form of that essential amino acid (such as lysine labeled with ^13C atoms, rather than normal ^12C atoms), which is called “heavy media”. When the two populations of cells are each growing in the medium, they incorporate the amino acids into all of their proteins. The growth of cells maintained in the heavy media is no different from that in normal media. All peptides containing the heavy amino acids are heavier than their normal counterparts. The cells from each of the two populations of cells are lysed. The lysates from each of the two cell populations are then combined. The combined cell lysates are then analyzed by mass spectrometry. Pairs of chemically identical peptides of different stable isotope composition can be differentiated in a mass spectrometer due to their difference in mass. The ratio of peak intensities in the mass spectrum for such peptide pairs reflects the abundance ratio for the two proteins.
This example describes SILAC studies that were performed to compare the effects of three different HDAC inhibitors (Compound A, Compound B, and tubastatin A) to a control on a human multiple myeloma cell line. The HDAC inhibitors were also compared amongst themselves to determine differences in their effects.
A human myeloma cell line MM.1S was grown using either ^12C (light) or ^13C (heavy) lysine containing culture medium. The “heavy” cells were treated with DMSO as the control, and the “light” cells were treated with a single HDAC inhibitor at 37° C. for 6 hours. The heavy and light cells were lysed, and the lysates were mixed in 1:1 ratio and digested with the protease trypsin. The acetylated lysine containing peptides (due to the action of the HDAC inhibitor) in the digested peptide pool were captured by a non-specific anti-acetylated lysine antibody cocktail (the antibodies identify both light and heavy acetylated peptides), and subjected to mass spectrometry analysis in order to identify thousands of individual peptides.
Thousands of peptides were identified in pairs (^12C and ^13C) due to their known mass differences. The amino acid sequence and quantitative ratio (Light/Heavy) of a given peptide in two differentially treated cell lysates were then determined and annotated with their possible protein (gene) sources.
As stated above, three HDAC inhibitors (Compound A, Compound B, and Tubastatin A) were used. Thus, the SILAC method was performed three times, with a different HDAC inhibitor compared to a control each time. Accordingly, there are three pairs of quantitative data in the table below, i.e., Compound A:DMSO, Compound B:DMSO, and Tubastatin A:DMSO. A cut-off of 1.30 fold of change (increase or decrease) was then used to determine “changed” or “+” in the table, and any peptides with a fold of change less than 1.3 fold were determined to be “unchanged” or “0” in the table. Those peptides that were not identified were marked as “NA” in the table. […]

Structure (SMILES): O=C(CCCCCCNC(=O)c1cnc(N(c2ccccc2)c2ccccc2)nc1)NO [Compound A, 2-(diphenylamino)-N-(7-(hydroxyamino)-7-oxoheptyl)pyrimidine-5-carboxamide]
- light to heavy ratio (L/H ratio) of acetylated peptide VVK(ac)QASEGPLK (SEQ ID NO: 597) (Glyceraldehyde-3-phosphate dehydrogenase [263], gene GAPDH, inhibitor:DMSO): 0.45 log 2
- light to heavy ratio (L/H ratio) of acetylated peptide AHLQK(ac)LMSDK (SEQ ID NO: 549) (Glycyl-tRNA synthetase [224], gene GARS, inhibitor:DMSO): 0.39 log 2
- light to heavy ratio (L/H ratio), log 2 scale, acetylated peptide LLLLGAGESGK(ac)STIVK (SEQ ID NO: 769) (Guanine nucleotide-binding protein G(olf) subunit alpha [55], gene GNAL, drug:DMSO): 0.97
- L/H ratio of acetylated peptide AGGK(ac)AGK(ac)DSGK (SEQ ID NO: 15) (H2AFV [5:8], log 2 scale, drug vs DMSO): 1.00
- light to heavy ratio (L/H ratio) of acetylated peptide TLAMDVMK(ac)PR (SEQ ID NO: 501) (H(+)/CI(−) exchange transporter 5 [587], gene CLCN5, inhibitor:DMSO): −0.76 log 2
- light to heavy ratio (L/H ratio) of acetylated peptide FSPDDK(ac)YSR (SEQ ID NO: 504) (H/ACA ribonucleoprotein complex subunit 3 [40], gene NOP10, inhibitor:DMSO): −0.68 log 2
- L/H ratio of acetylated peptide GQQQVFK(ac)GLNDK (SEQ ID NO: 41) (HADHA [406], log 2 scale, drug vs DMSO): 0.00
- L/H ratio of acetylated peptide (HGMK(ac)VVLISR (SEQ ID NO: 494), Estradiol 17-beta-dehydrogenase 12 [76], HSD17B12): −1.00 log 2
- L/H ratio of acetylated peptide PDPAK(ac)SAPAPK(ac)K (SEQ ID NO: 16) (HIST1H2BO [6:12], log 2 scale, drug vs DMSO): 1.00
- light to heavy ratio (L/H ratio) of acetylated peptide SLNLK(ac)HIK (SEQ ID NO: 607) (HLA-B associated transcript 1 [188], gene SNORD84, DDX39B, inhibitor:DMSO): 0.46 log 2
- L/H ratio of acetylated peptide K(ac)[…] (SEQ ID NO: 42) (HMGB2 [30], log 2 scale, drug vs DMSO): 0.00
- L/H ratio of acetylated peptide RGEEGHDPK(ac)EPEQLR (SEQ ID NO: 43) (HNRNPA3 [29], log 2 scale, drug vs DMSO): 0.00
- L/H ratio of acetylated peptide […](ac)WQSLK (SEQ ID NO: 44) (HNRNPM [83], log 2 scale, drug vs DMSO): 0.00
- L/H ratio of acetylated peptide AAEVLNK(ac)HSLSGRPLK (SEQ ID NO: 3) (HNRNPM [134], log 2 scale, drug vs DMSO): 0.00
- L/H ratio of acetylated peptide VK(ac)VLFVR (SEQ ID NO: 45) (HNRNPR [341], log 2 scale, drug vs DMSO): 0.00
- L/H ratio of acetylated peptide […](ac)YSR (SEQ ID NO: 46) (HNRNPU [246], log 2 scale, drug vs DMSO): 0.00
- L/H ratio of acetylated peptide TTWVTK(ac)HAAENPGK (SEQ ID NO: 47) (HNRNPU [497], log 2 scale, drug vs DMSO): 0.00
- L/H ratio of acetylated peptide NK(ac)EIFLR (SEQ ID NO: 52) (HSP90B1 [97], log 2 scale, drug vs DMSO): 0.00
- L/H ratio of acetylated peptide […](ac)IR (SEQ ID NO: 49) (HSP90B1 [114], log 2 scale, drug vs DMSO): 0.00
- L/H ratio of acetylated peptide EELVK(ac)NLGTIAK (SEQ ID NO: 48) (HSP90B1 [161], log 2 scale, drug vs DMSO): 0.00
- L/H ratio of acetylated peptide ETLQQHK(ac)LLK (SEQ ID NO: 50) (HSP90B1 [455], log 2 scale, drug vs DMSO): 0.00
- L/H ratio of acetylated peptide IADDK(ac)YNDTFWK (SEQ ID NO: 51) (HSP90B1 [479], log 2 scale, drug vs DMSO): 0.00
- L/H ratio of acetylated peptide […](ac)R (SEQ ID NO: 54) (HSPA5 [96], log 2 scale, drug vs DMSO): 0.00
- L/H ratio of acetylated peptide […](ac)R (SEQ ID NO: 53) (HSPA5 [213], log 2 scale, drug vs DMSO): 0.00
- L/H ratio of acetylated peptide […](ac)R (SEQ ID NO: 55) (HSPA8 [71], log 2 scale, drug vs DMSO): 0.00
- light to heavy ratio (L/H ratio) of acetylated peptide […](ac)R (SEQ ID NO: 267) (Heat shock 70 kDa protein 1A/1B [71], HSPA1B, HSPA1A, drug:DMSO): 0.44 log 2
- light to heavy ratio (L/H ratio), log 2 scale, acetylated peptide TEMDWVLK(ac)[…] (SEQ ID NO: 797) (Heterogeneous nuclear ribonucleoprotein F [98], gene HNRNPF, drug:DMSO): 1.00
- light to heavy ratio (L/H ratio) of acetylated peptide LLLFK(ac)TFSR (SEQ ID NO: 514) (Heterogeneous nuclear ribonucleoprotein U-like protein 2 [553], gene HNRNPUL2, inhibitor:DMSO): −0.57 log 2
- light to heavy ratio (L/H ratio) of acetylated peptide YEK(ac)DIAAYR (SEQ ID NO: 595) (High mobility group protein B2 [157], gene HMGB2, inhibitor:DMSO): 0.45 log 2
- light to heavy ratio (L/H ratio), log 2 scale, acetylated peptide AGK(ac)DSGK(ac)AK (SEQ ID NO: 786) (Histone H2A.V [8:12], gene H2AFV, drug:DMSO): 1.00
- light to heavy ratio (L/H ratio), log 2 scale, acetylated peptide GSK(ac)K(ac)AITK (SEQ ID NO: 790) (Histone H2B type 1-B [16:17], gene HIST1H2BB, drug:DMSO): 1.00
- light to heavy ratio (L/H ratio), log 2 scale, acetylated peptide PEPTK(ac)SAPAPK(ac)K (SEQ ID NO: 791) (Histone H2B type 1-D [6:12], gene HIST1H2BD, drug:DMSO): 1.00
- light to heavy ratio (L/H ratio), log 2 scale, acetylated peptide GSK(ac)K(ac)AINK (SEQ ID NO: 792) (Histone H2B type 1-M [16:17], gene HIST1H2BM, drug:DMSO): 1.00
- light to heavy ratio (L/H ratio), log 2 scale, acetylated peptide K(ac)AINK(ac)AQK (SEQ ID NO: 793) (Histone H2B type 1-M [17:21], gene HIST1H2BM, drug:DMSO): 1.00
- light to heavy ratio (L/H ratio) of acetylated peptide PEPAK(ac)SAPAPK(ac)K (SEQ ID NO: 309) (Histone H2B type 2-E [6:12], HIST2H2BE, drug:DMSO): 1.00 log 2
